From publication PMC12251549, “Engineering a Radiohybrid PSMA Ligand with an Albumin-Binding Moiety and Pharmacokinetic Modulation via an Albumin-Binding Competitor for Radiotheranostics” (Molecules, 2025)

Assays:
[1] = test system: PSMA-expressing LNCaP cells; assay: Cellular uptake and internalization in LNCaP cells, blocking with 2-PMPA; assay type: cell-based
Procedure: Cellular uptake experiments were performed according to a previous report with slight modifications. LNCaP cells expressing PSMA were cultured in RPMI 1640 medium containing 10% fetal bovine serum (FBS) and 1% penicillin–streptomycin on 6-well culture plates (containing 5 × 10^5 cells/well) for 24 h in a humidified atmosphere (5% CO2) incubator at 37 °C. After removing the medium and washing with phosphate-buffered saline (PBS) (−) once, a mixed solution of [^125I]5 and [^211At]6, [^125I]5 and [^67Ga]Ga-PSMA-617, and [^125I]5 and [^67Ga]5 in 1.0 mL of medium without FBS was added (3.7 kBq/each tracer/well). The final concentrations of the radioligands for [^125I]5, [^211At]6, and [^67Ga]5 were 45.5 pM, 0.2 pM, and 2.5 pM, respectively. These solutions containing radioligands were diluted in saline containing 0.05% (w/v) bovine serum albumin (BSA) to prevent adsorption to tubes or plates and further diluted with medium to 0.00125% as the final BSA concentration. After incubation for 10, 60, and 120 min, the medium from each well was removed, and the cells were washed twice with ice-cold PBS (−); the surface of the cells was washed twice with ice-cold 0.2 M glycine buffer (pH 3.0). The cells were lysed using a 1 M NaOH aqueous solution. The radioactivity of ^67Ga,^125I and ^211At in the 1 M NaOH aqueous solution was determined and defined as the internalized radioligand fraction using an auto well gamma counter (ARC-8001, Hitachi, Ltd., Tokyo, Japan) according to a previous paper. The radioactivity was determined with an auto well gamma counter and corrected for background radiation and physical decay during counting. A window from 16 to 69 keV was used for counting ^125I, and a window from 70 to 120 keV was used for counting ^211At. Correlation factors to eliminate any crossover of ^125I activity in the ^211At counts were determined by measuring the ^125I standard in each window. More than one week after the experiments, the radioactivity counts of ^125I were measured after the decay of ^211At. The protein amount in cells was quantified using a BCA Protein Assay Kit (Nacalai Tesque, Kyoto, Japan) according to the manufacturer’s protocol. All data were expressed as percent dose per milligram protein (%dose/mg protein). In blocking experiments, a selective inhibitor of the PSMA, (2S)-2-(phosphonomethyl)pentanedioic acid (2-PMPA) (final concentration 100 µM), was added to each well with tracers. After incubation for 10, 60, and 120 min, radioactivity and protein concentration were determined in the same manner as the experiment without the blocking agent.

[2] = In vitro stability test in 0.1 M phosphate buffer; assay type: physicochemical; conditions: 0.1 M PB solution containing 10% ethanol, 37 °C, 24 h, mean ± SD for three samples
Procedure: samples were analyzed by RP-HPLC using a Cosmosil 5C18-AR-II (4.6 × 150 mm) at a flow rate of 1 mL/min with a gradient mobile phase of 60% methanol in water with 0.1% trifluoroacetic acid (TFA) to 80% methanol in water with 0.1% TFA for 20 min.
In vitro stability test in 0.1 M PB solution containing 10% ethanol was performed. The […]
and 97.1 ± 0.9% (mean ± SD for three samples) after incubating at 37 °C for 24 h, […]

[3] = Biodistribution after intravenous co-injection of [125I]5 and [67Ga]Ga-PSMA-617 (Table S1); assay type: in vivo, normal mice (ddY); conditions: normal mice; for Biodistribution of radioactivity: Blood / Biodistribution of radioactivity: Bone / Biodistribution of radioactivity: Brain / Biodistribution of radioactivity: Heart / Biodistribution of radioactivity: Kidney / Biodistribution of radioactivity: L. Intestine / Biodistribution of radioactivity: Liver / Biodistribution of radioactivity: Lung / Biodistribution of radioactivity: Muscle / Biodistribution of radioactivity: Neck / Biodistribution of radioactivity: Pancreas / Biodistribution of radioactivity: S. Intestine / Biodistribution of radioactivity: Spleen / Biodistribution of radioactivity: Stomach: i.v.
Procedure: [^67Ga]Ga-PSMA-617 (37 kBq) and [^125I]5 (37 kBq) or [^125I]5 (37 kBq) and [^211At]6 (37 kBq) were intravenously co-administered into three or four normal mice at each timepoint (6 weeks male ddY mice, 28–30 g, Japan SLC, Inc., Hamamatsu, Japan). Mice were sacrificed at 10 min, 1 h, 4 h, and 24 h ([^67Ga]Ga-PSMA-617 and [^125I]5) or at 10 min, 1 h, 4 h, 12 h, and 24 h ([^125I]5 and [^211At]6) postinjection of the radiolabeled compounds. Tissues of interest were removed and weighed, and the radioactivity of ^67Ga and ^125I and ^125I and ^211At were determined with an auto well gamma counter (ARC-8001) and corrected for background radiation as described in the Cellular Uptake Experiments Section. To determine the amount and routes of the radioactivity excreted from the body for 24 h after the injection of radiolabeled compounds, mice were housed in metabolic cages (METABOLICA, SUGIYAMA-GEN Co., Ltd., Tokyo, Japan). Data are shown as the percentage of injected dose per gram of tissues (%ID/g) or %ID.

O=C([O-])CN1CCN(CC(=O)[O-])CCN(CC(=O)NC(CCCCNC(=O)CCCc2ccc(I)cc2)C(=O)NCC2CCC(C(=O)NC(Cc3ccc4ccccc4c3)C(=O)NCCCCC(NC(=O)NC(CCC(=O)O)C(=O)O)C(=O)O)CC2)CCN(CC(=O)[O-])CC1.[67Ga+3] (centres unmarked) [[^67Ga]5]
Effect of excess 2-PMPA on cellular uptake ([1]; 2-PMPA 100 µM): significantly reduced | Radiochemical purity after incubation (in vitro stability) [2]: 93.1 ± 0.9%

O=C([O-])CN1CCN(CC(=O)[O-])CCN(CC(=O)NCC2CCC(C(=O)NC(Cc3ccc4ccccc4c3)C(=O)NCCCCC(NC(=O)NC(CCC(=O)O)C(=O)O)C(=O)O)CC2)CCN(CC(=O)[O-])CC1.[67Ga+3] (centres unmarked) [[^67Ga]Ga-PSMA-617, reference compound]
Cellular uptake and internalization levels compared with [125I]5 and [211At]6 [1]: lower | Clearance from organs ([3]; 1 h postinjection): rapid clearance from most organs except the kidney | Excretion in feces ([3]; 24 h postinjection): 2.4 ± 0.3 %ID | Excretion in urine ([3]; 24 h postinjection): 58.0 ± 2.6 %ID | Biodistribution of radioactivity: Blood ([3]; 10 min after injection): 3.40 (0.42) % injected dose per gram | Biodistribution of radioactivity: Bone ([3]; 10 min after injection): 1.02 (0.23) % injected dose per gram | Biodistribution of radioactivity: Brain ([3]; 10 min after injection): 0.11 (0.02) % injected dose per gram | Biodistribution of radioactivity: Heart ([3]; 10 min after injection): 1.22 (0.11) % injected dose per gram | Biodistribution of radioactivity: Kidney ([3]; 10 min after injection): 69.46 (8.76) % injected dose per gram | Biodistribution of radioactivity: L. Intestine ([3]; 10 min after injection): 0.58 (0.07) % injected dose per gram | Biodistribution of radioactivity: Liver ([3]; 10 min after injection): 0.74 (0.10) % injected dose per gram | Biodistribution of radioactivity: Lung ([3]; 10 min after injection): 2.60 (0.40) % injected dose per gram | Biodistribution of radioactivity: Muscle ([3]; 10 min after injection): 0.75 (0.08) % injected dose per gram | Biodistribution of radioactivity: Neck ([3]; 10 min after injection): 0.02 (0.01) % injected dose | Biodistribution of radioactivity: Pancreas ([3]; 10 min after injection): 1.03 (0.18) % injected dose per gram | Biodistribution of radioactivity: S. Intestine ([3]; 10 min after injection): 0.75 (0.03) % injected dose per gram | Biodistribution of radioactivity: Spleen ([3]; 10 min after injection): 0.96 (0.09) % injected dose per gram | Biodistribution of radioactivity: Stomach ([3]; 10 min after injection): 0.38 (0.02) % injected dose | Biodistribution of radioactivity: Blood ([3]; 1 h after injection): 0.29 (0.04) % injected dose per gram | Biodistribution of radioactivity: Bone ([3]; 1 h after injection): 0.18 (0.04) % injected dose per gram | Biodistribution of radioactivity: Brain ([3]; 1 h after injection): 0.02 (0.00) % injected dose per gram | Biodistribution of radioactivity: Heart ([3]; 1 h after injection): 0.11 (0.00) % injected dose per gram | Biodistribution of radioactivity: Kidney ([3]; 1 h after injection): 16.32 (3.17) % injected dose per gram | Biodistribution of radioactivity: L. Intestine ([3]; 1 h after injection): 0.07 (0.01) % injected dose per gram | Biodistribution of radioactivity: Liver ([3]; 1 h after injection): 0.18 (0.07) % injected dose per gram | Biodistribution of radioactivity: Lung ([3]; 1 h after injection): 0.28 (0.03) % injected dose per gram | Biodistribution of radioactivity: Muscle ([3]; 1 h after injection): 0.09 (0.00) % injected dose per gram | Biodistribution of radioactivity: Neck ([3]; 1 h after injection): 0.00 (0.00) % injected dose | Biodistribution of radioactivity: Pancreas ([3]; 1 h after injection): 0.14 (0.03) % injected dose per gram | Biodistribution of radioactivity: S. Intestine ([3]; 1 h after injection): 0.16 (0.02) % injected dose per gram | Biodistribution of radioactivity: Spleen ([3]; 1 h after injection): 0.14 (0.01) % injected dose per gram | Biodistribution of radioactivity: Stomach ([3]; 1 h after injection): 0.07 (0.02) % injected dose | Biodistribution of radioactivity: Blood ([3]; 4 h after injection): 0.07 (0.01) % injected dose per gram | Biodistribution of radioactivity: Bone ([3]; 4 h after injection): 0.14 (0.05) % injected dose per gram | Biodistribution of radioactivity: Brain ([3]; 4 h after injection): 0.01 (0.00) % injected dose per gram | Biodistribution of radioactivity: Heart ([3]; 4 h after injection): 0.04 (0.02) % injected dose per gram | Biodistribution of radioactivity: Kidney ([3]; 4 h after injection): 1.54 (0.08) % injected dose per gram | Biodistribution of radioactivity: L. Intestine ([3]; 4 h after injection): 0.59 (0.79) % injected dose per gram | Biodistribution of radioactivity: Liver ([3]; 4 h after injection): 0.08 (0.01) % injected dose per gram | Biodistribution of radioactivity: Lung ([3]; 4 h after injection): 0.06 (0.01) % injected dose per gram | Biodistribution of radioactivity: Muscle ([3]; 4 h after injection): 0.02 (0.01) % injected dose per gram | Biodistribution of radioactivity: Neck ([3]; 4 h after injection): 0.00 (0.00) % injected dose | Biodistribution of radioactivity: Pancreas ([3]; 4 h after injection): 0.04 (0.02) % injected dose per gram | Biodistribution of radioactivity: S. Intestine ([3]; 4 h after injection): 0.22 (0.17) % injected dose per gram | Biodistribution of radioactivity: Spleen ([3]; 4 h after injection): 0.05 (0.01) % injected dose per gram | Biodistribution of radioactivity: Stomach ([3]; 4 h after injection): 0.07 (0.04) % injected dose | Biodistribution of radioactivity: Blood ([3]; 24 h after injection): 0.01 (0.00) % injected dose per gram | Biodistribution of radioactivity: Bone ([3]; 24 h after injection): 0.16 (0.04) % injected dose per gram | Biodistribution of radioactivity: Brain ([3]; 24 h after injection): 0.00 (0.00) % injected dose per gram | Biodistribution of radioactivity: Heart ([3]; 24 h after injection): 0.01 (0.01) % injected dose per gram | Biodistribution of radioactivity: Kidney ([3]; 24 h after injection): 0.29 (0.06) % injected dose per gram | Biodistribution of radioactivity: L. Intestine ([3]; 24 h after injection): 0.15 (0.11) % injected dose per gram | Biodistribution of radioactivity: Liver ([3]; 24 h after injection): 0.04 (0.01) % injected dose per gram | Biodistribution of radioactivity: Lung ([3]; 24 h after injection): 0.02 (0.01) % injected dose per gram | Biodistribution of radioactivity: Muscle ([3]; 24 h after injection): 0.01 (0.00) % injected dose per gram | Biodistribution of radioactivity: Neck ([3]; 24 h after injection): 0.00 (0.00) % injected dose | Biodistribution of radioactivity: Pancreas ([3]; 24 h after injection): 0.02 (0.01) % injected dose per gram | Biodistribution of radioactivity: S. Intestine ([3]; 24 h after injection): 0.04 (0.03) % injected dose per gram | Biodistribution of radioactivity: Spleen ([3]; 24 h after injection): 0.03 (0.01) % injected dose per gram | Biodistribution of radioactivity: Stomach ([3]; 24 h after injection): 0.05 (0.04) % injected dose
